The numbers were not newly measured in US20030152481A1 (priority 2002, published 2003), which cites them from elsewhere.

For the series the following is noted: rat, in vivo.

In the case of `OCCc1ccccc1` [2-phenylethanol], the “oral LD50” value is 1790 mg/kg.
